The subject of the experiment is PC-3 cells. Kind of experiment: MTT assay in PC-3 cells, 24 hr incubation. As to conditions: Homo sapiens, NCs of similar sizes (~100 nm). The class given is cell-based. As for the experimental part: Characterization and Evaluation of Ptxl-PLA NC: NC sizes were characterized by a ZetaPALS dynamic light scattering detector (Brookhaven Instruments, Holtsville, N.Y., USA) or by SEM. The resulting NCs were purified by ultrafiltration; their in vitro toxicities were then evaluated using MTT assay in PC-3 cells (24 hr incubation at 37 C). To determine the release kinetics of Ptxl-PLA, a PBS solution of NCs was equally divided into several portions and then incubated at 37 C. At scheduled time, the release study was terminated. DMF solution was added to dissolve all precipitation. All the samples were then dried, re-dissolved in DCM and reacted with Bu4NBH4 for 1.5 hours. A drop of acetic acid was added into the solution. The solution was stirred for 20 min before the solvent was evaporated. The residual solid was reconstituted in acetonitrile for RP HPLC analysis (Curosil, 250×4.6 mm, 5μ; Phenomenex, Torrence, Calif., USA).
PC-3 cells were plated in a 96-well plate for 24 h (10,000 cells per well). On the day of experiments, cells were washed with prewarmed PBS and different concentration of fresh prepared NCs (prepared in 1×PBS) was added. The control cells were incubated with medium. […] The resulting crystals were dissolved and final cell viability was assessed colorimetrically by microplate reader at 655 nm. […]

In turn, `CC(=O)O[C@H]1C(=O)[C@@]2(C)[C@H]([C@H](OC(=O)c3ccccc3)[C@]3(O)C[C@H](OC(=O)[C@H](O)[C@@H](NC(=O)c4ccccc4)c4ccccc4)C(C)=C1C3(C)C)[C@]1(OC(C)=O)CO[C@@H]1C[C@@H]2O` [Ptxl, paclitaxel] gave an IC50 of 0.087 µM.

The values above are taken from patent publication US9789195B2, “Particulate drug delivery methods” (priority 2007, dated 2017).
